Experimental data published in patent publication US20260374756A1, “HETEROCYCLIC COMPOUNDS AS INHIBITORS OF MONOACYLGLYCEROL LIPASE (MAGL)” (Hoffmann-La Roche Inc., priority 2022, published 2026).

Target: T1, hMAGL (Homo sapiens, UniProt Q99685)
T1 sequence (Q99685 1-303): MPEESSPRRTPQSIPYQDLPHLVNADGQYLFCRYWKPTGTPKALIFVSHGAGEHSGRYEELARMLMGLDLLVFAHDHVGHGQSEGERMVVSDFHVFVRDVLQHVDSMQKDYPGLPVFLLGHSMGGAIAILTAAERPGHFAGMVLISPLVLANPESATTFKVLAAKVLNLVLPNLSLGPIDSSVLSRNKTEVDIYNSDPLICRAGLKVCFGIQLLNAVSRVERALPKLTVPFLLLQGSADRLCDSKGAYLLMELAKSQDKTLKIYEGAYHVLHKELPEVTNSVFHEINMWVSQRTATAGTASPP
Assay: 2-AG assay: MAGL inhibition, hydrolysis of 2-arachidonoylglycerol to arachidonic acid followed by mass spectrometry
Type: biochemical
Experimental: Compounds of formula (I) were profiled for MAGL inhibitory activity by determining the enzymatic activity by following the hydrolysis of the natural substrate 2-arachidonoylglycerol (2-AG) resulting in arachidonic acid, which can be followed by mass spectrometry. This assay is hereinafter abbreviated “2-AG assay”. The 2-AG assay was carried out in 384 well polypropylene assay plates. […] Compound dilutions were added to MAGL protein in assay buffer (50 mM TRIS, 1 mM EDTA, 0.01% (v/v) Tween-20, 2.5% (v/v) DMSO). After shaking, the plate was incubated for 15 min at RT. To start the reaction, 2-arachidonoylglycerol in assay buffer was added. The final concentrations in the assay was […] for MAGL protein and 8 μM 2-arachidonoylglyerol. After shaking and 30 min incubation at RT, the reaction was quenched by the addition of two assay volumes of acetonitrile containing 4 μM of d8-arachidonic acid. The amount of arachidonic acid formed was traced by an online SPE system (Agilent Rapidfire) coupled to a triple quadrupole mass spectrometer. A C18 SPE cartridge (Agilent G9205A) was used in an acetonitrile/water liquid setup. […] The activity of the compounds was calculated based on the ratio of intensities [arachidonic acid/d8-arachidonic acid].

IC50 [nM] | SMILES
2.43 | Cn1nc(C(F)(F)F)cc1CC1CC2(C1)CN(C(=O)N1CC3(CC(n4cnc(C5(O)CC5)n4)C3)C1)C2 [Example 288, [6-[3-(1-hydroxycyclopropyl)-1,2,4-triazol-1-yl]-2-azaspiro[3.3]heptan-2-yl]-[6-[[2-methyl-5-(trifluoromethyl)pyrazol-3-yl]methyl]-2-azaspiro[3.3]heptan-2-yl]methanone]
0.4 | Cc1cc(C(F)F)nn1CC1CC2(C1)CN(C(=O)N1CC3(CC(n4cnc(C(F)(F)F)n4)C3)C1)C2 [Example 94]
92.6 | O=C(N1CC2(CC(n3cnc(C4CC4)n3)C2)C1)N1CC2(CN(Cc3ccn(CC(F)(F)F)n3)C2)C1 [Example 100, [6-(3-cyclopropyl-1,2,4-triazol-1-yl)-2-azaspiro[3.3]heptan-2-yl]-[6-[[1-(2,2,2-trifluoroethyl)pyrazol-3-yl]methyl]-2,6-diazaspiro[3.3]heptan-2-yl]methanone]
3.44 | O=C(N1CC2(CC(c3cc(C4CC4)n[nH]3)C2)C1)N1CC2(CN(Cc3ncc(C(F)F)s3)C2)C1 [Example 185, [6-(3-cyclopropyl-1H-pyrazol-5-yl)-2-azaspiro[3.3]heptan-2-yl]-[6-[[5-(difluoromethyl)thiazol-2-yl]methyl]-2,6-diazaspiro[3.3]heptan-2-yl]methanone]
36.3 | O=C(N1CC2(CC(n3cnc(C4CC4)n3)C2)C1)N1CC2(CN(Cc3noc(C(F)(F)F)n3)C2)C1 [Example 323, [6-(3-cyclopropyl-1,2,4-triazol-1-yl)-2-azaspiro[3.3]heptan-2-yl]-[6-[[5-(trifluoromethyl)-1,2,4-oxadiazol-3-yl]methyl]-2,6-diazaspiro[3.3]heptan-2-yl]methanone]
640 | Cc1nn(CC(F)(F)F)cc1CN1CC2(C1)CN(C(=O)N1CC3(CC(n4cnc(C(F)(F)F)n4)C3)C1)C2 [Example 112, [6-[[3-methyl-1-(2,2,2-trifluoroethyl)pyrazol-4-yl]methyl]-2,6-diazaspiro[3.3]heptan-2-yl]-[6-[3-(trifluoromethyl)-1,2,4-triazol-1-yl]-2-azaspiro[3.3]heptan-2-yl]methanone]
2.9 | Cn1cc(C(F)(F)F)c(CC2CC3(C2)CN(C(=O)N2CC4(CC(n5cnc(C6(O)CC6)n5)C4)C2)C3)n1 [Example 289, [6-[3-(1-hydroxycyclopropyl)-1,2,4-triazol-1-yl]-2-azaspiro[3.3]heptan-2-yl]-[6-[[1-methyl-4-(trifluoromethyl)pyrazol-3-yl]methyl]-2-azaspiro[3.3]heptan-2-yl]methanone]
0.14 | O=C(N1CC2(CC(Cc3cc(C4(C(F)(F)F)CC4)[nH]n3)C2)C1)N1CC2(CC(n3cnc(C(F)(F)F)n3)C2)C1 [Example 354]
1.2 | O=C(N1CC2(CC(n3cnc(C4CC4)n3)C2)C1)N1CC2(CN(Cc3nc(-c4ccccc4)no3)C2)C1 [Example 245, [6-(3-cyclopropyl-1,2,4-triazol-1-yl)-2-azaspiro[3.3]heptan-2-yl]-[6-[(3-phenyl-1,2,4-oxadiazol-5-yl)methyl]-2,6-diazaspiro[3.3]heptan-2-yl]methanone]
102 | O=C(N1CC2(CC(n3cnc(C(F)(F)F)n3)C2)C1)N1CC2(CN(Cc3nc(C(F)(F)F)co3)C2)C1 [Example 216]
0.31 | O=C(N1CC2(CC(Cc3n[nH]cc3C(F)(F)F)C2)C1)N1CC2(CC(n3cnc(C(F)(F)F)n3)C2)C1 [Example 129, [6-[[4-(trifluoromethyl)-1H-pyrazol-3-yl]methyl]-2-azaspiro[3.3]heptan-2-yl]-[6-[3-(trifluoromethyl)-1,2,4-triazol-1-yl]-2-azaspiro[3.3]heptan-2-yl]methanone]
110 | Cn1ccnc1CN1CC2(C1)CN(C(=O)N1CC3(CC(n4cnc(C5CC5)n4)C3)C1)C2 [Example 308, [6-(3-cyclopropyl-1,2,4-triazol-1-yl)-2-azaspiro[3.3]heptan-2-yl]-[6-[(1-methylimidazol-2-yl)methyl]-2,6-diazaspiro[3.3]heptan-2-yl]methanone]
3.8 | O=C(N1CC2(CC(n3cnc(C4CC4)n3)C2)C1)N1CC2(CN(Cc3cc(C(F)(F)F)sn3)C2)C1 [Example 156, [6-(3-cyclopropyl-1,2,4-triazol-1-yl)-2-azaspiro[3.3]heptan-2-yl]-[6-[[5-(trifluoromethyl)isothiazol-3-yl]methyl]-2,6-diazaspiro[3.3]heptan-2-yl]methanone]
539 | O=C(N1CC2(CC(n3cnc(C(F)(F)F)n3)C2)C1)N1CC2(CN(Cc3cnn(C(F)F)c3)C2)C1 [Example 262, [6-[[1-(difluoromethyl)pyrazol-4-yl]methyl]-2,6-diazaspiro[3.3]heptan-2-yl]-[6-[3-(trifluoromethyl)-1,2,4-triazol-1-yl]-2-azaspiro[3.3]heptan-2-yl]methanone]
18.7 | CC(C)(C)c1conc1CN1CC2(C1)CN(C(=O)N1CC3(CC(n4cnc(C(F)(F)F)n4)C3)C1)C2 [Example 255, [6-[(4-tert-butylisoxazol-3-yl)methyl]-2,6-diazaspiro[3.3]heptan-2-yl]-[6-[3-(trifluoromethyl)-1,2,4-triazol-1-yl]-2-azaspiro[3.3]heptan-2-yl]methanone]
0.23 | O=C(N1CC2(CC(Cc3cc(C(F)(F)F)n[nH]3)C2)C1)N1CC2(CC(n3cnc(C(F)(F)F)n3)C2)C1 [Example 298, [6-[[3-(trifluoromethyl)-1H-pyrazol-5-yl]methyl]-2-azaspiro[3.3]heptan-2-yl]-[6-[3-(trifluoromethyl)-1,2,4-triazol-1-yl]-2-azaspiro[3.3]heptan-2-yl]methanone]
0.77 | O=C(N1CC2(CC(Cc3nc(C(F)(F)F)c[nH]3)C2)C1)N1CC2(CC(n3cnc(C4CC4)n3)C2)C1 [Example 351, [6-(3-cyclopropyl-1,2,4-triazol-1-yl)-2-azaspiro[3.3]heptan-2-yl]-[6-[[4-(trifluoromethyl)-1H-imidazol-2-yl]methyl]-2-azaspiro [3.3]heptan-2-yl]methanone]
22.2 | CS(=O)(=O)c1cnn(CC2CC3(C2)CN(C(=O)N2CC4(CC(n5cnc(C(F)(F)F)n5)C4)C2)C3)c1 [Example 327, [6-[(4-mesylpyrazol-1-yl)methyl]-2-azaspiro[3.3]heptan-2-yl]-[6-[3-(trifluoromethyl)-1,2,4-triazol-1-yl]-2-azaspiro[3.3]heptan-2-yl]methanone]
2.57 | O=C(N1CC2(CC(Cc3nsc(C(F)(F)F)n3)C2)C1)N1CC2(CC(n3cnc(C4(O)CC4)n3)C2)C1 [Example 22, [6-[3-(1-hydroxycyclopropyl)-1,2,4-triazol-1-yl]-2-azaspiro[3.3]heptan-2-yl]-[6-[[5-(trifluoromethyl)-1,2,4-thiadiazol-3-yl]methyl]-2-azaspiro[3.3]heptan-2-yl]methanone]
2.39 | Cn1nc(CN2CC3(C2)CN(C(=O)N2CC4(CC(n5cnc(C(F)(F)F)n5)C4)C2)C3)cc1C(F)(F)F [Example 161, [6-[[1-methyl-5-(trifluoromethyl)pyrazol-3-yl]methyl]-2,6-diazaspiro[3.3]heptan-2-yl]-[6-[3-(trifluoromethyl)-1,2,4-triazol-1-yl]-2-azaspiro[3.3]heptan-2-yl]methanone]
4.31 | O=C(N1CC2(CC(Cn3ncc(C(F)(F)F)n3)C2)C1)N1CC2(CC(n3cnc(C4(O)CC4)n3)C2)C1 [Example 292, [6-[3-(1-hydroxycyclopropyl)-1,2,4-triazol-1-yl]-2-azaspiro[3.3]heptan-2-yl]-[6-[[4-(trifluoromethyl)triazol-2-yl]methyl]-2-azaspiro[3.3]heptan-2-yl]methanone]
5.48 | Cc1cc(C(F)F)n(CC2CC3(C2)CN(C(=O)N2CC4(CC(n5cnc(C6(O)CC6)n5)C4)C2)C3)n1 [Example 93, [6-[[5-(difluoromethyl)-3-methyl-pyrazol-1-yl]methyl]-2-azaspiro[3.3]heptan-2-yl]-[6-[3-(1-hydroxycyclopropyl)-1,2,4-triazol-1-yl]-2-azaspiro[3.3]heptan-2-yl]methanone]
0.17 | O=C(N1CC2(CC(Cc3cc(C(F)F)n[nH]3)C2)C1)N1CC2(CC(n3cnc(C4CC4)n3)C2)C1 [Example 296, [6-(3-cyclopropyl-1,2,4-triazol-1-yl)-2-azaspiro[3.3]heptan-2-yl]-[6-[[3-(difluoromethyl)-1H-pyrazol-5-yl]methyl]-2-azaspiro[3.3]heptan-2-yl]methanone]
0.58 | O=C(N1CC2(CC(Cc3n[nH]c(C4(C(F)(F)F)CC4)n3)C2)C1)N1CC2(CC(n3cnc(C4CC4)n3)C2)C1 [Example 102, [6-(3-cyclopropyl-1,2,4-triazol-1-yl)-2-azaspiro[3.3]heptan-2-yl]-[6-[[5-[1-(trifluoromethyl)cyclopropyl]-1H-1,2,4-triazol-3-yl]methyl]-2-azaspiro[3.3]heptan-2-yl]methanone]
1.02 | N=S(=O)(c1cnn(CC2CC3(C2)CN(C(=O)N2CC4(CC(n5cnc(C6CC6)n5)C4)C2)C3)c1)C(F)(F)F (stereo not shown) [Example 349, [6-(3-cyclopropyl-1,2,4-triazol-1-yl)-2-azaspiro[3.3]heptan-2-yl]-[6-[[4-(trifluoromethylsulfonimidoyl)pyrazol-1-yl]methyl]-2-azaspiro[3.3]heptan-2-yl]methanone]
